# Source: patent US9637520B2, “Template-fixed peptidomimetics with CXCR7 modulating activity” (POLYPHOR AG, priority 2010, dated 2017)
# Starred links: 1 amine or outer side, 2 acyl side, 3 side chain; linkers in the order of their positions; H or OH if unused. Non-standard residues stand in square brackets, D forms with d. Residues, ends and D or L forms follow the SMILES beside them. *: point of attachment. X3 = O=C(N[C@H]1C[C@@H](C(=O)[*:2])N([*:1])C1)c1ccccc1; Arg(Nω,Nω'-propylene) = N[C@@H](CCCNC1=NCCCN1)C(=O)O; dPro(cis-4-NH2) = N[C@H]1CN[C@@H](C(=O)O)C1; X4 = Cn1ccnc1CNCCC[C@H](N[*:1])C(=O)[*:2]; Oic = O=C(O)[C@@H]1C[C@@H]2CCCC[C@@H]2N1; dPro(3S-OH) = O=C(O)[C@@H]1NCC[C@@H]1O; 1Nal = N[C@@H](Cc1cccc2ccccc12)C(=O)O; Pro(3S-OH) = O=C(O)[C@H]1NCC[C@@H]1O; cisHyp = O=C(O)[C@@H]1C[C@H](O)CN1; dCit = NC(=O)NCCC[C@@H](N)C(=O)O; 3Pal = N[C@@H](Cc1cccnc1)C(=O)O; Tic = O=C(O)[C@@H]1Cc2ccccc2CN1; d3Pal = N[C@H](Cc1cccnc1)C(=O)O; Agb = N=C(N)NCC[C@H](N)C(=O)O; dDab = NCC[C@@H](N)C(=O)O; hSer = N[C@@H](CCO)C(=O)O; Orn = NCCC[C@H](N)C(=O)O; Dab = NCC[C@H](N)C(=O)O; Bn = c1ccc(C*)cc1
# Target: T1, CXCR7 (Homo sapiens, UniProt P25106)
# T1 construct: host or cells: CHO (PathHunter CHO-CXCR7 β-arrestin cells)
# Experiment: CXCR7 β-arrestin recruitment assay (PathHunter CHO-CXCR7, DiscoverX), agonistic assay
# Type: cell-based
# Conditions: not given
# Method: Lyophilized peptides were weighed on a Microbalance (Mettler MX5) and dissolved in DMSO to a final concentration of 10 mM unless otherwise stated. Stock solutions were kept at +4° C., and protected from light.
# 2.2 CXCR7 β-Arrestin Recruitment Assay
# The PathHunter CHO-CXCR7 (DiscoverX) assay was performed according to the manufacturer's protocol. In brief, CHO CXCR7 β-arrestin cells were seeded at a density of 5000 cells per well in 40 μl of F12 medium in black 96-half volume well culture plates and incubated overnight at 37° C. in a humidified atmosphere with 5% CO2. The next day, serial dilutions of PEM compounds have been prepared in DMSO and subsequently diluted in HBSS buffer containing 0.1% BSA.
# For agonistic assay, 10 μl of compound solution or a solution of stromal cell-derived factor-1 (SDF-1) as positive control was added to the cells with a final DMSO concentration of 1% (v/v). The plate was incubated for 90 min at 37° C. in 5% CO2 incubator with gentle shaking (300 rpm) before addition of 40 μl of detection reagent per well. Reaction was developed for 90 min at room temperature in the dark with shaking, and chemiluminescence was measured with a Topcount (Perkin Elmer) luminescence counter.
# T1 sequence (P25106 whole entry): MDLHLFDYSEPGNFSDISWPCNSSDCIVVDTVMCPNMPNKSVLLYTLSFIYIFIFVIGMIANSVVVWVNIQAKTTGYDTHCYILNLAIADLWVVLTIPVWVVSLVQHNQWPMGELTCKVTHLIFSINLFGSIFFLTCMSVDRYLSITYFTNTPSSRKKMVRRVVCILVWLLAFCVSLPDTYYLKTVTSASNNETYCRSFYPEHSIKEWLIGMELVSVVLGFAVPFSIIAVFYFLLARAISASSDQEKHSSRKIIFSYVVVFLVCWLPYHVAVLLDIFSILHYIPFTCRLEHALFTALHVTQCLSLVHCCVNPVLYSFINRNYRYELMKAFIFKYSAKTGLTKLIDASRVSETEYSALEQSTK
row,Structure (SMILES),EC50
1,"O=C(N[C@H]1C[C@H]2C(=O)N[C@@H](Cc3c[nH]cn3)C(=O)N[C@H](Cc3c[nH]c4ccccc34)C(=O)N[C@@H](Cc3c[nH]cn3)C(=O)N[C@@H](Cc3c[nH]c4ccccc34)C(=O)N3CCC[C@@H]3C(=O)N2C1)c1ccccc1 [Ex. 51, cyclo(-His-^DTrp-His-Trp-^DPro-Pro((4S)NHBz)-)] (cyclo(HW[dP][X3]H[dW]))",413 ± 225 nM

# Same assay, conditions: agonistic assay; CHO CXCR7 β-arrestin cells; 90 min at 37° C.; chemiluminescence; read-out: β-Arrestin EC50
row,Structure (SMILES),EC50
1,"N[C@@H]1C[C@@H]2C(=O)N3Cc4ccccc4C[C@H]3C(=O)N[C@@H](Cc3c[nH]c4ccccc34)C(=O)N[C@H](Cc3ccccc3)C(=O)N[C@@H](Cc3c[nH]c4ccccc34)C(=O)N[C@@H](CCCNC3=NCCCN3)C(=O)N2C1 [compound 80, cyclo(-Trp-^DPhe-Trp-Orn(A56)-^DPro((4R)NH2)-Tic-)] (cyclo([Tic]W[dF]W[Arg(Nω,Nω'-propylene)][dPro(cis-4-NH2)]))",33.4 ± 0.8 nM
2,"N=C(N)NCCC[C@@H]1NC(=O)[C@@H]2C[C@H](OCc3ccccc3)CN2C(=O)[C@H]2CCCN2C(=O)[C@H](CCCNC(=N)N)NC(=O)[C@H](Cc2c[nH]c3ccccc23)NC(=O)[C@@H](Cc2ccccc2)NC1=O [Ex. 48, cyclo(-Arg-^DPhe-Trp-Arg-^DPro-(4S)-Hyp(Bn)-)] (cyclo(R[dF]WR[dP][cisHyp](Bn)))",76.9 ± 24.7 nM
3,"N=C(N)NCCC[C@@H]1NC(=O)[C@@H]2Cc3ccccc3CN2C(=O)[C@H]2C[C@@H](N)CN2C(=O)[C@H](CCCNC(=N)N)NC(=O)[C@H](Cc2c[nH]c3ccccc23)NC(=O)[C@@H](Cc2ccccc2)NC1=O [compound 33, cyclo(-Arg-^DPhe-Trp-Arg-^DPro((4R)NH2)-Tic-)] (cyclo(R[dF]WR[dPro(cis-4-NH2)][Tic]))",248 ± 16.5 nM
4,"NCCC[C@@H]1NC(=O)[C@H](Cc2c[nH]c3ccccc23)NC(=O)[C@@H](Cc2ccccc2)NC(=O)[C@H](Cc2c[nH]c3ccccc23)NC(=O)[C@@H]2Cc3ccccc3CN2C(=O)[C@H]2C[C@@H](N)CN2C1=O [Ex. 29, cyclo(-Trp-^DPhe-Trp-Orn-^DPro((4R)NH2)-Tic-)] (cyclo([Orn][dPro(cis-4-NH2)][Tic]W[dF]W))",26.1 ± 16.7 nM
5,"N=C(N)NCCC[C@@H]1NC(=O)[C@@H](CCCNC(=N)N)NC(=O)[C@H](Cc2cccc3ccccc23)NC(=O)[C@@H]2[C@@H](O)CCN2C(=O)[C@H]2CCCN2C(=O)[C@H](Cc2c[nH]c3ccccc23)NC1=O [compound 52, cyclo(-1Nal-^DArg-Arg-Trp-^DPro-Pro((3S)OH)—)] (cyclo([1Nal][dR]RW[dP][Pro(3S-OH)]))",13.7 ± 5.1 nM
6,"CC[C@H](C)[C@@H]1NC(=O)[C@H]([C@@H](C)O)NC(=O)[C@H]2CCCN2C(=O)[C@H](Cc2c[nH]c3ccccc23)NC(=O)[C@H](CCCNC(=N)N)NC(=O)[C@@H](CCCNC(N)=O)NC1=O [compound 13, cyclo(-Ile-^DCit-Arg-Trp-^DPro-Thr-)] (cyclo(I[dCit]RW[dP]T))",473 ± 68.9 nM
7,"N=C(N)NCCC[C@@H]1NC(=O)[C@H](Cc2c[nH]c3ccccc23)NC(=O)[C@@H](Cc2ccccc2)NC(=O)[C@H](Cc2c[nH]c3ccccc23)NC(=O)[C@@H]2C[C@@H]3CCCC[C@@H]3N2C(=O)[C@H]2C[C@@H](N)CN2C1=O [Ex. 41, cyclo(-Trp-^DPhe-Trp-Arg-^DPro((4R)NH2)-Oic-)] (cyclo([Oic]W[dF]WR[dPro(cis-4-NH2)]))",20.9 ± 33.7 nM
8,"N=C(N)NCCC[C@@H]1NC(=O)[C@H](Cc2c[nH]c3ccccc23)NC(=O)[C@@H](Cc2ccccc2)NC(=O)[C@H](Cc2cccnc2)NC(=O)[C@@H]2Cc3ccccc3CN2C(=O)[C@H]2C[C@@H](N)CN2C1=O [compound 37, cyclo(-3Pal-^DPhe-Trp-Arg-^DPro((4R)NH2)-Tic-)] (cyclo([3Pal][dF]WR[dPro(cis-4-NH2)][Tic]))",5.1 ± 0.9 nM
9,"CC[C@H](C)[C@@H]1NC(=O)[C@H]([C@@H](C)O)NC(=O)[C@H]2CCCN2C(=O)[C@H](Cc2c[nH]c3ccccc23)NC(=O)[C@H](CCNC(=N)N)NC(=O)[C@@H](CCCNC(=N)N)NC1=O [Ex. 24, cyclo(-Ile-^DArg-Agb-Trp-^DPro-Thr-)] (cyclo([Agb]W[dP]TI[dR]))",22.3 ± 29.3 nM
10,"C[C@@H]1NC(=O)[C@@H]2Cc3ccccc3CN2C(=O)[C@H]2C[C@@H](N)CN2C(=O)[C@H](CCCNC(=N)N)NC(=O)[C@H](Cc2c[nH]c3ccccc23)NC(=O)[C@@H](Cc2ccccc2)NC1=O [compound 27, cyclo(-Ala-^DPhe-Trp-Arg-^DPro((4R)NH2)-Tic-)] (cyclo(A[dF]WR[dPro(cis-4-NH2)][Tic]))",322 ± 48.2 nM
11,"CC[C@H](C)[C@@H]1NC(=O)[C@H]([C@@H](C)O)NC(=O)[C@H]2CCCN2C(=O)[C@H](Cc2c[nH]c3ccccc23)NC(=O)[C@H](CCCNCc2nccn2C)NC(=O)[C@@H](CCCNC(=N)N)NC1=O [Ex. 69, cyclo(-Ile-^DArg-Orn(Ar7)-Trp-^DPro-Thr-)] (cyclo(I[dR][X4]W[dP]T))",337 ± 92.6 nM
12,"CC[C@H](C)[C@@H]1NC(=O)[C@H]([C@@H](C)O)NC(=O)[C@H]2CCCN2C(=O)[C@H](Cc2c[nH]c3ccccc23)NC(=O)[C@H](CCN)NC(=O)[C@@H](CCCNC(=N)N)NC1=O [Ex. 4, cyclo(-Ile-^DArg-Dab-Trp-^DPro-Thr-)] (cyclo([Dab]W[dP]TI[dR]))",87 ± 84.1 nM
13,"CC[C@H](C)[C@@H]1NC(=O)[C@H](CCO)NC(=O)[C@H]2CCCN2C(=O)[C@H](Cc2c[nH]c3ccccc23)NC(=O)[C@H](CCCNC(=N)N)NC(=O)[C@@H](CCCNC(=N)N)NC1=O [Ex. 8, cyclo(-Ile-^DArg-Arg-Trp-^DPro-hSer-)] (cyclo(I[dR]RW[dP][hSer]))",347 ± 10.3 nM
14,"NCC[C@@H]1NC(=O)[C@H](Cc2c[nH]c3ccccc23)NC(=O)[C@@H](Cc2ccccc2)NC(=O)[C@H](Cc2c[nH]c3ccccc23)NC(=O)[C@@H]2Cc3ccccc3CN2C(=O)[C@H]2C[C@@H](N)CN2C1=O [compound 30, cyclo(-Trp-^DPhe-Trp-Dab-^DPro((4R)NH2)-Tic-)] (cyclo([Dab][dPro(cis-4-NH2)][Tic]W[dF]W))",13.6 ± 5 nM
15,"N=C(N)NCCC[C@@H]1NC(=O)[C@H](Cc2c[nH]c3ccccc23)NC(=O)[C@@H](Cc2cccnc2)NC(=O)[C@H](Cc2c[nH]c3ccccc23)NC(=O)[C@@H]2Cc3ccccc3CN2C(=O)[C@H]2C[C@@H](N)CN2C1=O [compound 38, cyclo(-Trp-^D3Pal-Trp-Arg-^DPro((4R)NH2)-Tic-)] (cyclo(R[dPro(cis-4-NH2)][Tic]W[d3Pal]W))",6.1 ± 1.5 nM
16,"N=C(N)NCCC[C@@H]1NC(=O)[C@H](Cc2c[nH]c3ccccc23)NC(=O)[C@@H](Cc2ccccc2)NC(=O)[C@H](CCCNC2=NCCCN2)NC(=O)[C@@H]2Cc3ccccc3CN2C(=O)[C@H]2C[C@@H](N)CN2C1=O [compound 77, cyclo(-Orn(A56)-^DPhe-Trp-Arg-^DPro((4R)NH2)-Tic-)] (cyclo(R[dPro(cis-4-NH2)][Tic][Arg(Nω,Nω'-propylene)][dF]W))",181 ± 62.9 nM
17,"C[C@@H](O)[C@@H]1NC(=O)[C@H]2CCCN2C(=O)[C@H](Cc2c[nH]c3ccccc23)NC(=O)[C@H](CCCNC(=N)N)NC(=O)[C@@H](CCCNC(=N)N)NC(=O)[C@H](Cc2c[nH]c3ccccc23)NC1=O [Ex. 20, cyclo(-Trp-^DArg-Arg-Trp-^DPro-Thr-)] (cyclo(RW[dP]TW[dR]))",538 ± 105 nM
18,"CC[C@H](C)[C@@H]1NC(=O)[C@H]([C@@H](C)O)NC(=O)[C@H]2CCCN2C(=O)[C@H](Cc2cccc3ccccc23)NC(=O)[C@H](CCCNC(=N)N)NC(=O)[C@@H](CCCNC(=N)N)NC1=O [compound 16, cyclo(-Ile-^DArg-Arg-1Nal-^DPro-Thr-)] (cyclo([1Nal][dP]TI[dR]R))",17.9 ± 2.6 nM
19,"CC[C@H](C)[C@@H]1NC(=O)[C@H]([C@@H](C)O)NC(=O)[C@H]2CCCN2C(=O)[C@H]([C@@H](C)CC)NC(=O)[C@H](CCCNC(=N)N)NC(=O)[C@@H](CCCNC(=N)N)NC1=O [Ex. 1, cyclo(-Ile-^DArg-Arg-Ile-^DPro-Thr-)] (cyclo(I[dP]TI[dR]R))",79.7 ± 99.7 nM
20,"CC(C)[C@@H]1NC(=O)[C@H]([C@@H](C)O)NC(=O)[C@H]2CCCN2C(=O)[C@H](Cc2c[nH]c3ccccc23)NC(=O)[C@H](CCCNC(=N)N)NC(=O)[C@@H](CCCNC(=N)N)NC1=O [compound 57, cyclo(-Val-^DArg-Arg-Trp-^DPro-Thr-)] (cyclo(RW[dP]TV[dR]))",271 ± 0.2 nM
21,"CC[C@H](C)[C@@H]1NC(=O)[C@H]([C@@H](C)O)NC(=O)[C@H]2CCCN2C(=O)[C@H](Cc2c[nH]c3ccccc23)NC(=O)[C@H](CCCNC(=N)N)NC(=O)[C@@H](CCN)NC1=O [Ex. 5, cyclo(-Ile-^DDab-Arg-Trp-^DPro-Thr-)] (cyclo(I[dDab]RW[dP]T))",48.4 ± 67.5 nM
22,"N=C(N)NCCC[C@@H]1NC(=O)[C@@H]2C[C@@H]3CCCC[C@@H]3N2C(=O)[C@H]2C[C@@H](N)CN2C(=O)[C@H](CCCNC(=N)N)NC(=O)[C@H](Cc2c[nH]c3ccccc23)NC(=O)[C@@H](Cc2ccccc2)NC1=O [compound 42, cyclo(-Arg-^DPhe-Trp-Arg-^DPro((4R)NH2)-Oic-)] (cyclo([Oic]R[dF]WR[dPro(cis-4-NH2)]))",20.5 ± 10.9 nM
23,"CC[C@H](C)[C@@H]1NC(=O)[C@H]([C@@H](C)O)NC(=O)[C@H]2[C@@H](O)CCN2C(=O)[C@H](Cc2c[nH]c3ccccc23)NC(=O)[C@H](CCCNC(=N)N)NC(=O)[C@@H](CCCNC(=N)N)NC1=O [Ex. 55, cyclo(-Ile-^DArg-Arg-Trp-^DPro((4S)OH)-Thr-)] (cyclo(I[dR]RW[dPro(3S-OH)]T))",632 ± 23.3 nM
24,"CC[C@H](C)[C@@H]1NC(=O)[C@H]([C@@H](C)O)NC(=O)[C@H]2CCCN2C(=O)[C@H](Cc2c[nH]c3ccccc23)NC(=O)[C@H](CCCNC(=N)N)NC(=O)[C@@H](CCCCN)NC1=O [compound 11, cyclo(-Ile-^DLys-Arg-Trp-^DPro-Thr-)] (cyclo(I[dK]RW[dP]T))",86.7 ± 9.7 nM
